Source: article PMC10233829 (ACS Omega, 2023)
≈ marks a conversion by molar mass, not a printed value.

How the values were obtained:
E. coli 600 = experiment: MIC, twofold microdilution, clinical strain; format: cell-based, Escherichia coli; settings: Escherichia coli, 600, 18 h
K. pneumoniae 510 = experiment: MIC, twofold microdilution, clinical strain; format: cell-based, Klebsiella pneumoniae; settings: Klebsiella pneumoniae, 510; clinical strain, 18 h
[1] = test system: S. epidermidis ATCC 12228; experiment: MIC, twofold microdilution, standard strain; format: cell-based; settings: Staphylococcus epidermidis, ATCC12228, 18 h
S. aureus ATCC 29213 = experiment: MIC, twofold microdilution, standard strain; format: cell-based; settings: Staphylococcus aureus, ATCC29213, 18 h
S. aureus T5591 = experiment: MIC, twofold microdilution, clinical strain; format: cell-based, Staphylococcus aureus; settings: Staphylococcus aureus, T5591, 18 h
PC3 cells = experiment: MTT assay, cytotoxic activity; format: cell-based, human; settings: Homo sapiens, PC-3, 72 h, MTT, 72 h
Method: Metastatic prostate cancer (PC3) and human immortal keratinocyte (HaCaT) cell lines were purchased from the American Type Culture Collection (ATCC, Rockville, MD, USA) and cultured in MEM (minimal essential medium, Thermo Sci, USA), RPMI 1640 (Roswell Park Memorial Institute, Biowest SAS, France), and DMEM (Dulbecco’s Modified Eagle’s Medium, Biowest SAS, France). Cells were seeded in 6 mL medium in a tissue culture flask (50 mL) in a 37 °C/5% CO2 humidified incubator. […] MTT analysis was performed according to a previous study.[59] Untreated cells were used as controls. Cell absorbance results were inserted into the formula for the relative MTT level (%). It allows to calculate the viability of cells under the influence of the tested compounds. Cell viability was expressed as the percentage of MTT reduction in cells treated with tested compounds compared to the control sample. The relative MTT level was calculated using the formula [100%] = A/B × 100% where A—the test sample absorbance and B—the control sample absorbance.

S. aureus ATCC 6538 = experiment: MIC, twofold microdilution, standard strain; format: cell-based, Staphylococcus aureus; settings: Staphylococcus aureus, ATCC6538; standard strain, 18 h
S. epidermidis 5253 = experiment: MIC, twofold microdilution, clinical strain; format: cell-based, Staphylococcus epidermidis; settings: for MIC: Staphylococcus epidermidis, 5253, 18 h
P. aeruginosa 37 = experiment: MIC, twofold microdilution, clinical strain; format: cell-based; settings: Pseudomonas aeruginosa, 18 h
E. coli ATCC 25922 = experiment: MIC, twofold microdilution, standard strain; format: cell-based, Escherichia coli; settings: Escherichia coli, ATCC25922; standard strain, 18 h
S. aureus T5595 = experiment: MIC, twofold microdilution, clinical strain; format: cell-based, Staphylococcus aureus; settings: Staphylococcus aureus, T5595, 18 h
M. tuberculosis H37Rv = experiment: Tuberculostatic activity, Microplate Alamar Blue Assay (MIC); format: cell-based, Mycobacterium tuberculosis; settings: Mycobacterium tuberculosis, H37RV; MABA; read-out: MIC M. tuberculosis H37Rv
S. aureus 180 = experiment: MIC, twofold microdilution, clinical strain; format: cell-based; settings: Staphylococcus aureus, 18 h
E. coli 520 = experiment: MIC, twofold microdilution, clinical strain; format: cell-based; settings: Escherichia coli, 18 h
[2] = test system: Staphylococci (standard strains); experiment: MIC, standard Gram-positive strains as a panel; format: cell-based, S. aureus, S. epidermidis; settings: standard Gram-positive strains of Table 1; read-out: MIC toward standard Staphylococci (range over strains)
[3] = MTT assay, cytotoxic activity; format: cell-based; settings: human, HaCaT cells (immortal keratinocytes); MTT, 72 h, normal cell line; read-out: IC50 HaCaT
Method: Cells were seeded in 6 mL medium in a tissue culture flask (50 mL) in a 37 °C/5% CO2 humidified incubator. […] MTT analysis was performed according to a previous study.[59] Untreated cells were used as controls. Cell absorbance results were inserted into the formula for the relative MTT level (%). It allows to calculate the viability of cells under the influence of the tested compounds. Cell viability was expressed as the percentage of MTT reduction in cells treated with tested compounds compared to the control sample. The relative MTT level was calculated using the formula [100%] = A/B × 100% where A—the test sample absorbance and B—the control sample absorbance.

S. epidermidis 4341 = experiment: MIC, twofold microdilution, clinical strain; format: cell-based; settings: Staphylococcus epidermidis, 18 h
S. aureus 5595 = experiment: MIC, twofold microdilution, clinical strain; format: cell-based; settings: Staphylococcus aureus, 18 h
P. aeruginosa ATCC 15442 = experiment: MIC, twofold microdilution, standard strain; format: cell-based, Pseudomonas aeruginosa; settings: Pseudomonas aeruginosa, ATCC15442; standard strain, 18 h
S. aureus ATCC 25923 = experiment: MIC, twofold microdilution, standard strain; format: cell-based; settings: Staphylococcus aureus, ATCC25923, 18 h
P. aeruginosa 659 = experiment: MIC, twofold microdilution, clinical strain; format: cell-based; settings: Pseudomonas aeruginosa, 18 h
E. coli 951 = experiment: MIC, twofold microdilution, clinical strain; format: cell-based; settings: Escherichia coli, 18 h
E. cloacae 8 = experiment: MIC, twofold microdilution, clinical strain; format: cell-based, Escherichia cloacae; settings: Enterobacter cloacae, 8; clinical strain, 18 h
[4] = test system: S. epidermidis ATCC 35984; experiment: MIC, twofold microdilution, standard strain; format: cell-based; settings: Staphylococcus epidermidis, ATCC35984, 18 h
K. pneumoniae 28 = experiment: MIC, twofold microdilution, clinical strain; format: cell-based; settings: Klebsiella pneumoniae, 18 h
[5] = test system: M. tuberculosis Spec. 192; experiment: Tuberculostatic activity, Microplate Alamar Blue Assay (MIC); format: cell-based; settings: Mycobacterium tuberculosis, MABA, read-out: MIC M. tuberculosis Spec. 192 (sensitive to tuberculostatics)
S. pasteuri KR 4358 = experiment: MIC, twofold microdilution, clinical strain; format: cell-based; settings: Staphylococcus pasteuri, KR4358, 18 h
S. epidermidis KR4243/1 = experiment: MIC, twofold microdilution, clinical strain; format: cell-based; settings: Staphylococcus epidermidis, 18 h
S. aureus NCTC 4163 = experiment: MIC, twofold microdilution, standard strain; format: cell-based; settings: Staphylococcus aureus, NCTC4163, 18 h

Row | Structure (SMILES) | MIC (E. coli 600) [µg/mL] | MIC (K. pneumoniae 510) [µg/mL] | MIC [1] [µg/mL] | MIC (S. aureus ATCC 29213) [µg/mL] | MIC (S. aureus T5591) [µg/mL] | IC50 (PC3 cells) [µM] | MIC (S. aureus ATCC 6538) [µg/mL] | MIC (S. epidermidis 5253) [µg/mL] | MIC (P. aeruginosa 37) [µg/mL] | MIC (E. coli ATCC 25922) [µg/mL] | MIC (S. aureus T5595) [µg/mL] | MIC (M. tuberculosis H37Rv) [µg/mL] | MIC (S. aureus 180) [µg/mL] | MIC (E. coli 520) [µg/mL] | IC50 at 72 h [3] [µM] | MIC (S. epidermidis 4341) [µg/mL] | MIC (S. aureus 5595) [µg/mL] | MIC (P. aeruginosa ATCC 15442) [µg/mL] | MIC (S. aureus ATCC 25923) [µg/mL] | MIC (P. aeruginosa 659) [µg/mL] | other results
1 | O=C(O)c1cn(C2CC2)c2cc(N3CCN(CC(=O)N4CCN(c5cc6c(cc5F)c(=O)c(C(=O)O)cn6C5CC5)CC4)CC3)c(F)cc2c1=O [Compound 17, CP–Acetyl–CP Dimer] | 12.8 (≈ 18.2 µM) | > 25.6 | 0.2 (≈ 0.285 µM) | 0.8 (≈ 1.14 µM) | 1.6 (≈ 2.28 µM) | 88.4 ± 10.6 | 0.2 (≈ 0.285 µM) | 12.8 to 25.6 (≈ 18.2 to 36.4 µM) | > 25.6 | 6.4 (≈ 9.11 µM) | 0.8 (≈ 1.14 µM) | 32 (≈ 45.5 µM) | 1.6 (≈ 2.28 µM) | 3.2 (≈ 4.55 µM) | 41.3 ± 5.2 | 25.6 (≈ 36.4 µM) | 0.4 (≈ 0.569 µM) | > 25.6 | 1.6 (≈ 2.28 µM) | > 25.6 | MIC S. epidermidis 5253 (S. epidermidis 5253; 18 h): 25.6 µg/mL (≈ 36.4 µM); MIC [2]: 0.2 to 1.6 µg/mL (≈ 0.285 to 2.28 µM); MIC (E. coli 951): > 25.6 µg/mL; MIC (E. cloacae 8): 25.6 µg/mL (≈ 36.4 µM); MIC [4]: 0.4 µg/mL (≈ 0.569 µM); MIC (K. pneumoniae 28): > 25.6 µg/mL; MIC [5]: 32 µg/mL (≈ 45.5 µM); MIC (S. pasteuri KR 4358): 1.6 µg/mL (≈ 2.28 µM); MIC (S. epidermidis KR4243/1): 0.2 µg/mL (≈ 0.285 µM); MIC (S. aureus NCTC 4163): 0.4 µg/mL (≈ 0.569 µM)
2 | O=C(O)c1cn(C2CC2)c2cc(N3CCN(CCCCCC(=O)N4CCN(c5cc6c(cc5F)c(=O)c(C(=O)O)cn6C5CC5)CC4)CC3)c(F)cc2c1=O [Compound 20, CP–Hexanoyl–CP Dimer] | 12.8 (≈ 16.9 µM) | > 25.6 | 1.6 (≈ 2.11 µM) | 1.6 (≈ 2.11 µM) | 0.8 (≈ 1.05 µM) | 69.9 ± 7.2 | 1.6 (≈ 2.11 µM) | > 25.6 | > 25.6 | 6.4 (≈ 8.43 µM) | 0.8 (≈ 1.05 µM) | 32 (≈ 42.2 µM) | 1 (≈ 1.32 µM) | 12.8 (≈ 16.9 µM) | 89.5 ± 5.9 | > 25.6 | 1 (≈ 1.32 µM) | > 25.6 | 1.6 (≈ 2.11 µM) | > 25.6 | MIC (E. coli 951): > 25.6 µg/mL; MIC (E. cloacae 8): > 25.6 µg/mL; MIC [4]: 1.6 µg/mL (≈ 2.11 µM); MIC (K. pneumoniae 28): > 25.6 µg/mL; MIC [5]: 16 µg/mL (≈ 21.1 µM); MIC (S. pasteuri KR 4358): 0.8 µg/mL (≈ 1.05 µM); MIC (S. epidermidis KR4243/1): 0.8 µg/mL (≈ 1.05 µM); MIC (S. aureus NCTC 4163): 1.6 µg/mL (≈ 2.11 µM)
